ChEMBL document CHEMBL1146228, “Stellettins L and M, cytotoxic isomalabaricane-type triterpenes, and sterols from the marine sponge Stelletta tenuis” (J Nat Prod, 2007)

Experiments:
Type in all cases: functional, cell-based
HT-29 = assay: Cytotoxicity against HT29 cells after 48 hrs by MTT assay; conditions: Homo sapiens, HT-29, 48 h
AGS = assay: Cytotoxicity against AGS cells after 48 hrs by MTT assay; conditions: Homo sapiens
A549 = assay: Cytotoxicity against A549 cells after 48 hrs by MTT assay; conditions: Homo sapiens, A549, 48 h
SMMC-7721 = assay: Cytotoxicity against SMMC7721 cells after 48 hrs by MTT assay; conditions: Homo sapiens, SMMC-7721, 48 h

| SMILES | IC50 (HT-29) [µM] | IC50 (AGS) [µM] | IC50 (A549) [µM] | IC50 (SMMC-7721) [µM] |
| --- | --- | --- | --- | --- |
| O=c1[nH]cc(F)c(=O)[nH]1 [FLUOROURACIL] | 540 | 370 | 9.2 | 51 |
| CC(/C=C/C=C(\C)C(=O)O)=C\C=C\C(C)=C1\C(=O)C[C@H]2[C@@]3(C)CC[C@H](O)C(C)(C)[C@@H]3CC[C@]12C [STELLETTIN L] | 33 | 3.9 | 28 | 120 |
| CC[C@]1(O)C[C@H]2CN(CCc3c([nH]c4ccccc34)[C@@](C(=O)OC)(c3cc4c(cc3OC)N(C=O)[C@H]3[C@@](O)(C(=O)OC)[C@H](OC(C)=O)[C@]5(CC)C=CCN6CC[C@]43[C@@H]65)C2)C1 [VINCRISTINE] | 0.21 | < 0.12 | 0.36 | < 0.12 |
| CC(/C=C/C=C(C)/C=C/C=C(\C)C(=O)O)=C1/C(=O)C[C@H]2[C@@]3(C)CC[C@H](O)C(C)(C)[C@@H]3CC[C@]12C [STELLETTIN M] | 42 | 2.1 | 34 | 90 |
